In patent publication US20230391772A1, “METHODS AND COMPOSITIONS FOR TARGETED PROTEIN DEGRADATION” (Ranok Therapeutics (Hangzhou) Co. Ltd., priority 2020, published 2023) one finds IC50 and EC50 data, which are given here for six compounds.

A word on the IC50: it is the concentration that gives 50% inhibition. The low end stands for greater potency, the high end for weaker potency. In general, EC50 refers to the midpoint of the concentration-response curve. Read a high EC50 as lower potency in that assay.

One assay has as its target T1, HSP90a protein (Homo sapiens, UniProt P07900).
T1 construct: purchased BPS Bioscience 50298
As to the kind of experiment: HSP90α-binding fluorescent polarization (FP) assay, BODIPY-labeled RNK04010 probe. The settings on record: FP competition with RNK04010 (BODIPY-labeled), 5 nM, 300 min at 25° C. The gist of the method:
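Test compounds (2.5-fold serial dilution, 20 μM to 5.2 nM) competed with a fluorescent tracer for N-terminal HSP90a, with fluorescence polarization as the read-out. FITC-geldanamycin tracer was used at 5 nM final with 120 min incubation at 25° C; BODIPY-labeled RNK04010 was used at 5 nM final with 300 min incubation.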

Assay [1] deals with MIA PaCa-2 human pancreatic carcinoma. The assay can be described thus: MIA PaCa-2 CCK-8 proliferation assay. Conditions: Homo sapiens, MIA PaCa-2, 72 h, MIA PaCa-2 cells. Type of assay: cell-based. The gist of the method:
(§1)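 Percent inhibition derived from CCK-8 optical signal, normalised between DMSO-only cells (0%) and cell-free medium containing DMSO as background. Cells: MIA PaCa-2 carrying 2 KRAS(G12C) copies; NCI-H358, NCI-H23 carrying 1 copy apiece. Concentrations spanned 1.02 nM–20 μM in threefold increments.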
On the technique in general: Tetrazolium dyes change colour on reduction, which living cells bring about.

Assay [2] concerns NCI-H358 human non-small cell lung cancer. The assay can be described thus: NCI-H358 CCK-8 proliferation assay. Conditions: NCI-H358 cells, 72 hr. Type of assay: cell-based. The method in brief: as §1

Take `CCC(=O)N1CCN(c2nc(NCCC(=O)N3CCC(Cc4ccc(CN(C)Cc5ccc(-n6c(O)nnc6-c6cc(C(C)C)c(O)cc6O)cc5)cc4)CC3)nc3c2CCN(c2cc(O)cc4ccccc24)C3)CC1` [Compound 63, trifluoroacetic acid]: the IC50 on HSP90a protein is 0.1 to 1 µM. Further, the half-maximal effective concentration (EC50) is more than 1 µM in assay [1] and 0.1 to 1 µM in assay [2].

On HSP90a protein, `C=C(F)C(=O)N1CCN(c2nc(N3CCC(CN4CCN(Cc5ccc(-n6c(O)nnc6-c6cc(C(C)C)c(O)cc6O)cc5)CC4)CC3)nc3c2CCN(c2cccc4cccc(Cl)c24)C3)C[C@@H]1CC#N` [Compound 129, (S)-2-(4-(7-(8-chloronaphthalen-1-yl)-2-(4-((4-(4-(3-(2,4-dihydroxy-5-isopropylphenyl)-5-hydroxy-4H-1,2,4-triazol-4-yl)benzyl)piperazin-1-yl)methyl)piperidin-1-yl)-5,6,7,8-tetrahydropyrido[3,4-d]pyrimidin-4-yl)-1-(2-fluoroacryloyl)piperazin-2-yl)acetonitrile] registered an IC50 of less than 0.1 µM. In assay [2], this compound gave an EC50 of 0.1 to 1 µM.

For `CCC(=O)N1CCN(c2nc(=O)n(-c3ccc(C(=O)NCCOCCOc4ccc(-n5c(O)nnc5-c5cc(C(C)C)c(O)cc5O)cc4)nc3)c3nc(-c4c(O)cccc4F)c(F)cc23)[C@@H](C)C1` [Compound 130, N-(2-(2-(4-(3-(2,4-dihydroxy-5-isopropylphenyl)-5-hydroxy-4H-1,2,4-triazol-4-yl)phenoxy)ethoxy)ethyl)-5-(6-fluoro-7-(2-fluoro-6-hydroxyphenyl)-4-((S)-2-methyl-4-propionylpiperazin-1-yl)-2-oxopyrido[2,3-d]pyrimidin-1(2H)-yl)picolinamide], the IC50 at HSP90a protein was less than 0.1 µM. The half-maximal effective concentration (EC50) in assay [2] is more than 1 µM.

Turning to `C=C(F)C(=O)N1CCN(c2nc(NCCC(=O)NCc3ccc(CN4CCC(Cc5ccc(-n6c(C(=O)NCC(F)(F)F)nnc6-c6cc(C(C)C)c(O)cc6O)cc5)CC4)cc3)nc3c2CCN(c2cc(O)cc4ccccc24)C3)CC1` [Compound 154, 5-(2,4-dihydroxy-5-isopropylphenyl)-4-(4-((1-(4-((3-((4-(4-(2-fluoroacryloyl)piperazin-1-yl)-7-(3-hydroxynaphthalen-1-yl)-5,6,7,8-tetrahydropyrido[3,4-d]pyrimidin-2-yl)amino)propanamido)methyl)benzyl)piperidin-4-yl)methyl)phenyl)-N-(2,2,2-trifluoroethyl)-4H-1,2,4-triazole-3-carboxamide], the IC50 on HSP90a protein was 0.1 to 1 µM. Moreover, the EC50 in assay [2] was in the range of 0.1 to 1 µM.

As for `C=C(F)C(=O)N1CCN(c2nc(OC[C@@H]3CCN(C(=O)c4ccc(Nc5cc(-n6nc(C(F)(F)F)c7c6CC(C)(C)CC7=O)ccc5C(N)=O)cc4)C3)nc3c2CCN(c2cccc4cccc(Cl)c24)C3)C[C@@H]1CC#N` [Compound 163, 2-((4-((R)-3-(((7-(8-chloronaphthalen-1-yl)-4-((S)-3-(cyanomethyl)-4-(2-fluoroacryloyl)piperazin-1-yl)-5,6,7,8-tetrahydropyrido[3,4-d]pyrimidin-2-yl)oxy)methyl)pyrrolidine-1-carbonyl)phenyl)amino)-4-(6,6-dimethyl-4-oxo-3-(trifluoromethyl)-4,5,6,7-tetrahydro-1H-indazol-1-yl)benzamide], at HSP90a protein, the IC50 was more than 1 µM. The compound further yielded an EC50 in assay [2] of more than 1 µM.

Regarding `C=C(F)C(=O)N1CCN(c2nc(OC[C@@H]3CCCN3C(=O)COc3ccc(Nc4cc(-n5nc(C(F)(F)F)c6c5CC(C)(C)CC6=O)ccc4C(N)=O)cc3)nc3c2CCN(c2cccc4cccc(Cl)c24)C3)C[C@@H]1CC#N` [Compound 164, 2-((4-(2-((S)-2-(((7-(8-chloronaphthalen-1-yl)-4-((S)-3-(cyanomethyl)-4-(2-fluoroacryloyl)piperazin-1-yl)-5,6,7,8-tetrahydropyrido[3,4-d]pyrimidin-2-yl)oxy)methyl)pyrrolidin-1-yl)-2-oxoethoxy)phenyl)amino)-4-(6,6-dimethyl-4-oxo-3-(trifluoromethyl)-4,5,6,7-tetrahydro-1H-indazol-1-yl)benzamide], the half-inhibitory concentration (IC50) at HSP90a protein is more than 1 µM. Further, the concentration giving a half-maximal response (EC50) in assay [2] is more than 1 µM.
